# Legend:
# [1] = biological target: T1, Peroxisome proliferator-activated receptor alpha (Canis lupus familiaris, UniProt Q95N78); assay: Agonist activity at dog PPARalpha; assay type: functional
# T1 sequence (Q95N78 whole entry): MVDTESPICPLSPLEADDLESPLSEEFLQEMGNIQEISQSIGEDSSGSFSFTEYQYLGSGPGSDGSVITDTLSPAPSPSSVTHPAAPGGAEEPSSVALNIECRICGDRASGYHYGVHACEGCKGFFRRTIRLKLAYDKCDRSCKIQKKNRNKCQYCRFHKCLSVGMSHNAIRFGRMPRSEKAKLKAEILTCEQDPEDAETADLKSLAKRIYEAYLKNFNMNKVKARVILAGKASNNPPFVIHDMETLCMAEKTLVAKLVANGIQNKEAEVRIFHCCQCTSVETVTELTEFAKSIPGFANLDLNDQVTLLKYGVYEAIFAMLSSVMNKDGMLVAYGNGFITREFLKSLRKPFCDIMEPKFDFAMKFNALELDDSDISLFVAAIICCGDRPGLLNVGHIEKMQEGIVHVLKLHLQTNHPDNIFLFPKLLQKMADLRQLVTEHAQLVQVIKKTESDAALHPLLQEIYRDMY
# [2] = biological target: T2, Peroxisome proliferator-activated receptor gamma (Rattus norvegicus, UniProt O88275); assay: Agonist activity at rat PPARgamma; assay type: functional
# T2 sequence (O88275 whole entry): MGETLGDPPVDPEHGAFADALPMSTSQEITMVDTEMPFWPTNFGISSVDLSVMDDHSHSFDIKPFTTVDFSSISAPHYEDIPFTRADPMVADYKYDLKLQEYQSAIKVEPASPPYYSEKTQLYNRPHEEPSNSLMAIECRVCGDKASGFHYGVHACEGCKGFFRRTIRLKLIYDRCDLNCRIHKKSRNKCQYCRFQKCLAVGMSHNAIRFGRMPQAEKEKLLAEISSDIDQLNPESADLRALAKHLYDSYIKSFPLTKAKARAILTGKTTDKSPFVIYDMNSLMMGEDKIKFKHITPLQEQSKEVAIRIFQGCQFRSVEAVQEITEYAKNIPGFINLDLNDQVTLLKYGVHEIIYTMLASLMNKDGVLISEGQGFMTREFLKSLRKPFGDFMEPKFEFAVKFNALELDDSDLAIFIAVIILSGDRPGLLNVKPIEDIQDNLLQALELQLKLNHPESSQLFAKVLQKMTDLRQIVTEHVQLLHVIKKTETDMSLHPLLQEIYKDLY
# [3] = biological target: T3, Peroxisome proliferator-activated receptor delta (Mus musculus, UniProt P35396); assay: Agonist activity at mouse PPARdelta; assay type: functional
# T3 sequence (P35396 whole entry): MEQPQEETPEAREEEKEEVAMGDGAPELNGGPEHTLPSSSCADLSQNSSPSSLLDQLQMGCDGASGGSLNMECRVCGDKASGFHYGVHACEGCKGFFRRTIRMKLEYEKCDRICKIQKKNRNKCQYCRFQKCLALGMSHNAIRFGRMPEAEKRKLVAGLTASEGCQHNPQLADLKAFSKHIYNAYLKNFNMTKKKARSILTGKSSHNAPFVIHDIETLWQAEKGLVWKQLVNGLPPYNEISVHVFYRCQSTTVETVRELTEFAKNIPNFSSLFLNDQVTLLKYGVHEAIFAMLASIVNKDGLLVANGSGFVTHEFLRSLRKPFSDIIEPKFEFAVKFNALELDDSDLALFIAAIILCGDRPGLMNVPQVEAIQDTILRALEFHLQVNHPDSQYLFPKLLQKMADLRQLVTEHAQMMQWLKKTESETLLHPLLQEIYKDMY
# [4] = Cmax in rat at 1 mg/kg, po; assay type: ADME, organism-based; design: dose 1 mg/kg, route oral; conditions: in vivo
# [5] = Total clearance in dog at 0.3 mg/kg, po; assay type: ADME, organism-based, Canis lupus familiaris; design: dose 0.3 mg/kg, route oral; conditions: in vivo
# [6] = Half life in dog at 0.3 mg/kg, po; assay type: ADME, organism-based, Canis lupus familiaris; design: dose 0.3 mg/kg, route oral; conditions: in vivo
# [7] = Oral bioavailability in dog at 0.3 mg/kg; assay type: ADME, organism-based, Canis lupus familiaris; conditions: in vivo
# Canis familiaris [8] = assay: Antidyslipidemic activity in high-fat diet fed dog assessed as decrease in total cholesterol at 0.03 mg/kg, po administered QD for 1 week (reference value: 205 +/- 6 mg/dL); assay type: functional, Canis lupus familiaris
# Canis familiaris [9] = assay: Antidyslipidemic activity in high-fat diet fed dog assessed as decrease in non-HDL cholesterol at 0.003 mg/kg, po administered QD for 1 week (reference value: 75 +/- 5 mg/dL); assay type: functional, Canis lupus familiaris
# Canis familiaris [10] = assay: Toxicity in high-fat diet fed dog assessed as change in body weight at 0.003 mg/kg, po administered QD for 1 week (reference value: 14.8 +/- 0.7 kg); assay type: organism-based, Canis lupus familiaris; design: dose 0.003 mg/kg, route oral; conditions: in vivo, 168 h
structure (smiles),measurement,setting,value
Cc1nc(-c2ccc(Cl)cc2)sc1C(=O)N[C@H]1CCCN(c2cccc(C(=O)O)c2)C1,EC50,[1],0.19 µM
same,EC50,[2],13 µM
same,EC50,[3],6.6 µM
same,Cmax,[4],316 ng/mL
same,CL/F,[5],0.333 mL/min/kg
same,half-life,[6],74 h
same,bioavailability,[7],73.1%
same,Activity,Canis familiaris [8],169 mg/dL
same,Activity,Canis familiaris [9],65 mg/dL
same,Activity,Canis familiaris [10],15.3 kg

# — ChEMBL document CHEMBL1933028, “Discovery of cyclic amine-substituted benzoic acids as PPARα agonists” (Bioorg Med Chem Lett, 2012)
